# Test results reported in patent publication US9216166B2, “Anti-microbial photodynamic therapy” (Biolitec Pharma Marketing, Ltd, priority 2006, dated 2015).
# How the values were obtained:
# Type in all cases: cell-based
# [1] = tested on: Staphylococcus aureus DSM1104; experiment: Photodynamic inactivation of Staphylococcus aureus with Safranin O (FIG. 1A)
# From the text: (§1) One of the major problems for the use of anti-microbial PDT is a blocking action of the components of the blood whose presence decreases the activity of photosensitizers.
# (§2) The antibacterial effect strongly depends on the kind of bacterial cells.
# (§3) FIG. 1, Graph showing photodynamic inactivation of Staphylococcus aureus DSM1104 (FIG. 1A), Pseudomonas aeruginosa DSM1 117 (FIG. 1B), and Escherichia coli DSM8698 (FIG. 1C) by treatment with Safranin O as a photo sensitizer.
# [2] = tested on: Staphylococcus aureus, Pseudomonas aeruginosa and Escherichia coli; experiment: Photodynamic inactivation of bacteria with Safranin O (FIG. 1)
# From the text: as §1, §2, §3
# [3] = tested on: Pseudomonas aeruginosa DSM1117; experiment: Photodynamic inactivation of Pseudomonas aeruginosa with Safranin O (FIG. 1B)
# From the text: as §1, §2, §3
# Escherichia coli DSM8698 = experiment: Photodynamic inactivation of Escherichia coli with Safranin O (FIG. 1C); conditions: compared with Staphylococcus aureus
# From the text: as §1, §2, §3
# [4] = tested on: Gram-positive and Gram-negative bacteria; experiment: Photodynamic inactivation of bacterial cell suspension using photosensitizers 1, 3a-e (CFU/ml after 665 nm laser irradiation); conditions: in the presence of blood (PBS with 10% human blood), 30 min incubation, about 100 J/cm^2, FIG. 2
# Method: In the preferred embodiment, the antibacterial treatment includes the administration of photosensitizers to an environment containing bacteria and is allowed to incubate for a sufficient period of time thus providing accumulation of the photosensitizer into the bacterial cells. The incubation time varies depending on many factors. In this experiment it is incubated for 30 min before being irradiated with 665 nm laser at 100 J/cm^2 to initiate photodestruction of bacterial cells. The photosensitizer can be administered either by systemic application, or local injection in the affected area. For infection on or near the skin it can be administered topically.
# The organisms used in our studies were three members of the microflora of wounds: Staphylococcus aureus DSM1104, Gram-positive; Escherichia coli DSM8698, Gram-negative; Pseudomonas aeruginosa DSM1117, Gram-negative.
# Cultured cells are suspended in sterile phosphate-buffered saline (PBS) or sterile PBS supplemented with 10% sterile horse blood serum, 10% human plasma or 10% human blood respectively. The final OD (Optical Density) at 600 nm, 1 cm in all cases was 0.03. The bacterial suspensions are placed into sterile black well plates with clear bottoms. […]
SMILES,killing of Gram-positive cells of Staphylococcus aureus by PDT [1],bactericidal photodynamic activity ([2]; in PBS buffer),change of bactericidal photodynamic activity ([2]; when blood serum or blood is added),"effect of added serum, plasma or blood on photodynamic activity against Pseudomonas aeruginosa ([3]; addition of 10% of horse serum or human plasma or whole blood)","susceptibility of Gram-negative cells of Pseudomonas aeruginosa to killing by PDT ([3]; compared with Staphylococcus aureus, FIG. 1)",susceptibility of Gram-negative cells of Escherichia coli to killing by PDT (Escherichia coli DSM8698),photodynamic activity against Gram-positive and Gram-negative bacteria [4]
Cc1cc2nc3cc(C)c(N)cc3[n+](-c3ccccc3)c2cc1N.[Cl-] [Safranin O],could be killed sufficiently,high bactericidal photodynamic activity,decreased remarkably,practically block the photodynamic activity,more resistant to killing by PDT,more resistant to killing by PDT,–
"CCC1=C(C)c2cc3[nH]c(cc4nc(c5c6[nH]c(cc1n2)c(C)c6C(=O)C5)[C@@H](CCC(=O)O)C4C)c(C)c3CC (stereo partly drawn) [compound 1, meso pyropheophorbide-a]",–,–,–,–,–,–,not active
